# Results from patent publication US11471444B2, “Methods of inhibiting tumor metastasis” (Vanderbilt University, priority 2017, dated 2022).
# What was measured:
# 4T1-RFP-luciferase cells [1] = experiment: Orthotopic 4T1 mouse model of metastasis (second experiment); format: in vivo, Balb/C mice; details: ifetroban 50 mg/kg daily or aspirin 12 mg/kg daily from tumor volume 50 mm^3; lungs harvested approx. 4 weeks later; FIG. 3
# Description: 1×10^5 4T1-RFP-luciferase cells were implanted into the left inguinal mammary fatpads of 6-week old, virgin WT Balb/C female mice as above. Mice were treated by orogastric gavage with ifetroban (50 mg/kg daily) or vehicle control when average tumor volume reached 50 mm^3 as above. Additionally a third group was treated with aspirin (12 mg/kg daily). Lungs were harvested approximately 4 weeks later. Lungs were assessed by whole mount hematoxylin staining to enumerate surface metastases (macro metastases) (FIG. 3).
# A549 (lung) cancer cells = experiment: Hematogenous metastasis of lung cancer cells (tail vein injection); format: in vivo, nu/nu mice; details: 50 mg/kg by orogastric gavage, pre-treated 24 hours, daily for 21 days; FIG. 8
# Description: (§1) MDA-MB-231 (breast), MiaPaca2 (pancreas) and A549 (lung) cancer cells were delivered by tail vein injection to nu/nu mice pre-treated 24 hours by orogastric gavage with ifetroban (50 mg/kg; N=10 per group) or vehicle (N=10). Mice continued daily treatment for an additional 21 days. On day 21, lungs were harvested and assessed for metastases. N=9, P value, Student's t-test.
# [2] = system: MiaPaca2 (pancreas) cancer cells; experiment: Hematogenous metastasis of pancreatic cancer cells (tail vein injection); format: in vivo, nu/nu mice; details: 50 mg/kg by orogastric gavage, pre-treated 24 hours, daily for 21 days; FIG. 8
# Description: as §1
# [3] = Total body weight of 4T1 tumor-bearing mice; format: in vivo, Balb/C mice; details: 50 mg/kg daily for 3 weeks; FIG. 5C
# Description: (§2) 1×10^5 4T1-RFP-luciferase cells were implanted into the left inguinal mammary fat pads of 6-week old, virgin WT Balb/C female mice. Mice were treated by orogastric gavage with ifetroban (50 mg/kg daily; N=8) or vehicle control (N=4) when average tumor volume reached 200 mm^3. […] Mouse total body weight was not affected by Ifetroban treatment (50 mg/kg daily) for 3 weeks (FIG. 5C).
# MDA-MB-231 cells = experiment: Lung metastases after tail vein injection of MDA-MB-231 cells; format: in vivo, mice; details: 50 mg/kg daily by orogastric gavage from 48 h before cell injection, continued 3 weeks; FIG. 4
# Description: Mice were randomized into groups receiving treatment by orogastric gavage with ifetroban (50 mg/kg daily) or vehicle, using 10 mice in both the ifetroban and control groups and 4% sucrose in water for the vehicle. Mice were treated 48 h prior to hematogenous delivery of MDA-MB-231 cells (1×10^5 cells) by tail vein injection, and ifetroban treatment was continued for 3 weeks thereafter, at which point lungs were collected from each mouse, and lung metastatic lesions visible to the naked eye were counted (FIG. 4).
# [4] = system: MDA-MB-231 (breast) cancer cells; experiment: Hematogenous metastasis of breast cancer cells (tail vein injection); format: in vivo, nu/nu mice; details: 50 mg/kg by orogastric gavage, pre-treated 24 hours, daily for 21 days; FIG. 8
# Description: as §1
# 4T1 cells = experiment: 4T1 cell culture growth and viability; format: cell-based; details: treated for 96 hours; FIG. 5A
# Source text: For cell culture experiments, vehicle is PBS.
# 4T1-RFP-luciferase cells [5] = experiment: Orthotopic 4T1 mouse model of metastasis (first experiment); format: in vivo, Balb/C mice
# Description: 1×10^5 4T1-RFP-luciferase cells were implanted into the left inguinal mammary fatpads of 6-week old, virgin WT Balb/C female mice using the following protocol. Mammary tumor cells (4T1-RFP-luciferase cells) are collected by trypsinization, counted, and resuspended in 50 microliters of serum-free media+50 microliters of growth factor-reduced Matrigel, for a total volume of 100 microliters. The cells are loaded into a syringe with a 26-g needle. The cells are injected into the inguinal mammary gland, which lies directly under (and attached to) the skin. The entire injection procedure takes about 10 seconds per mouse. Mice were treated by orogastric gavage with ifetroban (50 mg/kg daily) or vehicle control when average tumor volume reached 200 mm^3, using 8 mice in the ifetroban treatment group, 4 mice in the control group, and 4% sucrose in water for the vehicle. Tumors, lungs and plasma were harvested approximately 3 weeks later. Lungs were assessed by whole mount hematoxylin staining to enumerate surface metastases (macro metastases) (FIG. 1). Lungs were sectioned and stained with hematoxylin and eosin to confirm that hematoxylin-stained nodules were metastatic lesions, and to enumerate microscopic metastases (FIG. 2).
# as §2
SMILES,surface lung metastases (macro metastases) (4T1-RFP-luciferase cells [1]),"hematogenous metastasis to lungs, lung cancer cells (A549 (lung) cancer cells)","hematogenous metastasis to lungs, pancreatic cancer cells [2]",total mouse body weight [3],lung metastatic lesions visible to the naked eye (MDA-MB-231 cells),"hematogenous metastasis to lungs, breast cancer cells [4]",4T1 cell number (automated cell counting) (4T1 cells),number of apoptotic 4T1 cells (Annexin V staining) (4T1 cells),"microscopic lung metastases (4T1-RFP-luciferase cells [5]; 50 mg/kg daily by orogastric gavage from tumor volume 200 mm^3, approx. 3 weeks, lung sections, hematoxylin and eosin, FIG. 2)","surface lung metastases (macro metastases) (4T1-RFP-luciferase cells [5]; 50 mg/kg daily by orogastric gavage from tumor volume 200 mm^3, lungs harvested approx. 3 weeks later, whole mount hematoxylin staining, FIG. 1)","primary tumor volume (4T1-RFP-luciferase cells [5]; 50 mg/kg daily for 3 weeks, FIG. 5B)"
CC(=O)Oc1ccccc1C(=O)O [aspirin],decrease,–,–,–,–,–,–,–,–,–,–
CCCCCNC(=O)c1coc([C@H]2[C@@H](Cc3ccccc3CCC(=O)O)[C@@H]3CC[C@H]2O3)n1 [ifetroban],decrease,decreased,decreased,not affected,decrease,decreased,no ifetroban-mediated changes,no ifetroban-mediated changes,decrease,decrease,did not affect
